Data from patent US9115083B2 (Simpson Biotech Co., Ltd, priority 2011, dated 2015).

The molecules below were run against HCV NS3/4A protease (Hepatitis C virus genotype 1a (isolate H77) (HCV), UniProt P27958) (assay: HCV protease assay (fluorimetric, FRET substrate)). Conditions: HCV NS3/4A protease, 30 min at 37° C., triplicate; read-out: IC50 against HCV protease.
Format: biochemical
Excerpt: The HCV protease assay herein was applied to investigate the HCV-protease inhibitory activity of the prepared compounds as described above. The method of the HCV protease assay was described in D. T. Phuong, C. M. Ma, M. Hattori and J. S. Jin: Inhibitory Effects of Antrodins A-E from Antrodia cinnamomea and Their Metabolites on Hepatitis C Virus Protease. Phytotherapy Research, 23, 582-584, 2009. Two micro liters of a compound solution (using DMSO as solvent) was placed in 384 well micro plate, then 8 μl of HCV NS3/4A protease ([…]) was added to the well containing a sample and the plate was agitated. Finally, 10 μL of freshly prepared substrate (Ac-Asp-Glu-Dap(QXL™520)-Glu-Glu-Abu-COO-Ala-Ser-Cys(5-FAMsp)-NH2) (100× dilution of a DMSO stock solution) was added with sequential rotational shaking. The reaction mixture was incubated for 30 min at 37° C. The fluorimetric analyses were performed on an automated TECAN GENios plate reader with excitation wavelength at 485 nm and emission 530 nm. Each test compound was carried out in triplicate. The HCV—PR inhibition (%) was calculated by using the following equation: % inhibition=(Fvehicle control−[…])×100/Fvehicle control (Where F is the fluorescence value of vehicle control or of sample minus the fluorescence of the substrate control).

Chain of HCV NS3/4A protease (P27958 1027-1657): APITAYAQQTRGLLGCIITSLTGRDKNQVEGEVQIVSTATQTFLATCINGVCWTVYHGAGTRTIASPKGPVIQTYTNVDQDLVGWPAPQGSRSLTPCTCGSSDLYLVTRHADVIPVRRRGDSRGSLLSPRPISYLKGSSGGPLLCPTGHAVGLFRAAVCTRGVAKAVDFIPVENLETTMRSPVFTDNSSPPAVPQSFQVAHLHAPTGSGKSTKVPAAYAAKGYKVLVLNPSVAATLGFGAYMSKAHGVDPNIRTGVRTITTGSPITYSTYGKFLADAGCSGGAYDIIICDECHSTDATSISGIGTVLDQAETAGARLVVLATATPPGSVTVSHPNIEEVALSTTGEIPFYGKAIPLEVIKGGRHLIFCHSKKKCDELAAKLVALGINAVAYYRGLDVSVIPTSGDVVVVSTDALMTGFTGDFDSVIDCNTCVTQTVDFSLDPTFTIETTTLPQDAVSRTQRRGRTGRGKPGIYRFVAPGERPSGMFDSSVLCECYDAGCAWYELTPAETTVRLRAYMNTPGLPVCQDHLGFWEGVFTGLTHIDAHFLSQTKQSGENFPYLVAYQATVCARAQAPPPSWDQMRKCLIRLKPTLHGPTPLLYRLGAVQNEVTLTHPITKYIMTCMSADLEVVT
Chain of HCV NS3/4A protease (P27958 1658-1711 partner): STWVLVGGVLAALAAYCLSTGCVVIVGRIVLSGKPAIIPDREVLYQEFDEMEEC

Compound | IC50
CC(C)CC1C(=O)N(CC(=O)C(N)=O)C(=O)C1c1ccc(O)cc1 (stereo not drawn) [KAnh-2] | 146 µM
CC(C)=CCOc1ccc(C2=C(CC(C)C)C(=O)N(CCC(O)C(=O)O)C2=O)cc1 (stereo not drawn) [KB, 2-Hydroxy-4-(3-isobutyl-4-(4-(3-methylbut-2-enyloxy)phenyl)-2,5-dioxo-2,5-dihydro-1H-pyrrol-1-yl)butanoic acid] | 15.6 µM
COC(=O)C(NC(=O)C(CC(C)C)N1C(=O)C(CC(C)C)=C(c2ccc(OCC=C(C)C)cc2)C1=O)C(C)C (stereo not drawn) [Compound A1-1, Methyl 2-(2-(3-isobutyl-4-(4-(3-methylbut-2-enyloxy)phenyl)-2,5-dioxo-2,5-dihydro-1H-pyrrol-1-yl)-4-methylpentanamido)-3-methyl-butanoate] | > 100 µM
CCOC(=O)[C@H](C)NC(=O)C(=O)C(c1ccccc1)N1C(=O)C(CC(C)C)=C(c2ccc(OCC=C(C)C)cc2)C1=O (stereo partly drawn) [KC-2, Ethyl 2-(3-(3-isobutyl-4-(4-(3-methylbut-2-enyloxy)phenyl)-2,5-dioxo-2,5-dihydro-1H-pyrrol-1-yl)-2-oxo-3-phenylpropanamido)propanoate] | > 100 µM
CC(C)=CCOc1ccc(C2=C(CC(C)C)C(=O)N(C(Cc3ccc(O)cc3)C(=O)O)C2=O)cc1 (stereo not drawn) [Compound A4, 3-(4-Hydroxyphenyl)-2-(3-isobutyl-4-(4-(3-methylbut-2-enyloxy)-phenyl)-2,5-dioxo-2,5-dihydro-1H-pyrrol-1-yl)propanoic acid] | 16 µM
CC(C)=CCOc1ccc(C2=C(CC(C)C)C(=O)N(CC(=O)C(N)=O)C2=O)cc1 [KAnh-1] | 153 µM
CC(C)=CCOc1ccc(C2=C(CC(C)C)C(=O)N(C(C(=O)O)C(C)O)C2=O)cc1 (stereo not drawn) [Compound A6, 3-Hydroxy-2-(3-isobutyl-4-(4-(3-methylbut-2-enyloxy)phenyl)-2,5-dioxo-2,5-dihydro-1H-pyrrol-1-yl)butanoic acid] | 18 µM
CC(C)=CCOc1ccc(C2=C(CC(C)C)C(=O)N(C(C)C(=O)O)C2=O)cc1 (stereo not drawn) [Compound A8, 2-(3-Isobutyl-4-(4-(3-methylbut-2-enyloxy)phenyl)-2,5-dioxo-2,5-dihydro-1H-pyrrol-1-yl)propanoic acid] | 27 µM
CC(C)CC1C(=O)N(C(CCOCO)C(=O)O)C(=O)C1c1ccc(O)cc1 (stereo not drawn) [Compound A17] | 105 µM
CCOC(=O)[C@H](Cc1ccc(O)cc1)NC(=O)C(Cc1ccccc1)N1C(=O)C(CC(C)C)=C(c2ccc(OCC=C(C)C)cc2)C1=O (stereo partly drawn) [Compound A2-3, Ethyl 3-(4-hydroxyphenyl)-2-(2-(3-isobutyl-4-(4-(3-methylbut-2-enyloxy)phenyl)-2,5-dioxo-2,5-dihydro-1H-pyrrol-1-yl)-3-phenylpropanamido)propanoate] | 100 µM
CC(C)CC1C(=O)N(C(C)C(=O)O)C(=O)C1c1ccc(O)cc1 (stereo not drawn) [Compound A16] | 170 µM
CC(C)=CCOc1ccc(C2=C(CC(C)C)C(=O)N(C(C(=O)C(=O)NC(Cc3ccccc3)C(=O)OC(C)(C)C)c3ccccc3)C2=O)cc1 (stereo not drawn) [KC-5-2] | 51.6 µM
CC(C)CC1C(=O)N(C(C(=O)O)C(C)C)C(=O)C1c1ccc(O)cc1 (stereo not drawn) [Compound A15] | 85 µM
CCOC(=O)C(Cc1ccccc1)NC(=O)C(Cc1ccccc1)N1C(=O)C(CC(C)C)=C(c2ccc(OCC=C(C)C)cc2)C1=O (stereo not drawn) [Compound A2-2, Ethyl 2-(2-(3-isobutyl-4-(4-(3-methylbut-2-enyloxy)phenyl)-2,5-dioxo-2,5-dihydro-1H-pyrrol-1-yl)-3-phenylpropanamido)-3-phenylpropanoate] | 100 µM
CC(C)CC1C(=O)N(CC(C(=O)C(=O)NC(C)C(=O)O)c2ccccc2)C(=O)C1c1ccc(O)cc1 (stereo not drawn) [KC-4] | 14.6 µM
CC(C)=CCOc1ccc(C2=C(CC(C)C)C(=O)N(C(C(=O)C(N)=O)c3ccccc3)C2=O)cc1 (stereo not drawn) [KCnh-1] | 1.95 µM
CC(C)CC1C(=O)N(CCC(=O)C(=O)NC(Cc2ccccc2)C(=O)O)C(=O)C1c1ccc(O)cc1 (stereo not drawn) [KB-2] | 100 µM

Compound | IC50
CC(C)=CCOc1ccc(C2=C(CC(C)C)C(=O)N(CCC(=O)C(=O)NC3CC3)C2=O)cc1 [KB-1, N-Cyclopropyl-4-(3-isobutyl-4-(4-(3-methylbut-2-enyloxy)phenyl)-2,5-dioxo-2,5-dihydro-1H-pyrrol-1-yl)-2-oxobutanamide] | 61.9 µM
CC(C)CC1C(=O)N(C(CO)C(=O)N[C@@H](Cc2ccccc2)C(=O)O)C(=O)C1c1ccc(O)cc1 (stereo partly drawn) [Compound A3-16] | 132 µM
CC(C)=CCOc1ccc(C2=C(CC(C)C)C(=O)N(CC(O)C(=O)O)C2=O)cc1 (stereo not drawn) [KA, 2-Hydroxy-3-(3-isobutyl-4-(4-(3-methylbut-2-enyloxy)phenyl)-2,5-dioxo-2,5-dihydro-1H-pyrrol-1-yl)propanoic acid] | 8.7 µM
CC(C)=CCOc1ccc(C2=C(CC(C)C)C(=O)N(C(C(=O)O)C(C)C)C2=O)cc1 (stereo not drawn) [Compound A7, 2-(3-Isobutyl-4-(4-(3-methylbut-2-enyloxy)phenyl)-2,5-dioxo-2,5-dihydro-1H-pyrrol-1-yl)-3-methylbutanoic acid] | 23.3 µM
CC(C)=CCOc1ccc(C2=C(CC(C)C)C(=O)N(CCC(=O)C(=O)NC(C)C(=O)OC(C)(C)C)C2=O)cc1 (stereo not drawn) [KB-1-2] | 35.2 µM
CC(C)=CCOc1ccc(C2=C(CC(C)C)C(=O)N(CCC(=O)C(=O)NC(Cc3ccccc3)C(=O)OC(C)(C)C)C2=O)cc1 (stereo not drawn) [KB-2-2] | 16.2 µM
CC(C)CC1C(=O)N(C(CO)C(=O)O)C(=O)C1c1ccc(O)cc1 (stereo not drawn) [Compound A12] | 25 µM
CC(C)CC1C(=O)N(C(C(=O)C(N)=O)c2ccccc2)C(=O)C1c1ccc(O)cc1 (stereo not drawn) [KCnh-2] | 1.4 µM
CC(C)CC1C(=O)N(C(CC(C)C)C(=O)N[C@@H](C)C(=O)O)C(=O)C1c1ccc(O)cc1 (stereo partly drawn) [Compound A1-10] | 16 µM
CC(C)CC1C(=O)N(C(Cc2ccccc2)C(=O)N[C@@H](Cc2ccccc2)C(=O)O)C(=O)C1c1ccc(O)cc1 (stereo partly drawn) [Compound A2-12] | 192 µM
CC(C)=CCOc1ccc(C2=C(CC(C)C)C(=O)N(C(CC(C)C)C(=O)NC3CC3)C2=O)cc1 (stereo not drawn) [Compound A1-6, N-Cyclopropyl-2-(3-isobutyl-4-(4-(3-methylbut-2-enyloxy)phenyl)-2,5-dioxo-2,5-dihydro-1H-pyrrol-1-yl)-4-methylpentanamide] | > 200 µM
CC(C)=CCOc1ccc(C2=C(CC(C)C)C(=O)N(C(c3ccccc3)C(O)C(=O)O)C2=O)cc1 (stereo not drawn) [KC, 2-Hydroxy-3-(3-isobutyl-4-(4-(3-methylbut-2-enyloxy)phenyl)-2,5-dioxo-2,5-dihydro-1H-pyrrol-1-yl)-3-phenylpropanoic acid] | 5 µM
CC(C)CC1C(=O)N(CCC(=O)C(N)=O)C(=O)C1c1ccc(O)cc1 (stereo not drawn) [KBnh-2] | 7.4 µM
CC(C)=CCOc1ccc(C2=C(CC(C)C)C(=O)N(CC(=O)C(=O)NC(C)C(=O)OC(C)(C)C)C2=O)cc1 (stereo not drawn) [KA-5-2] | 47.6 µM
CC(C)=CCOc1ccc(C2=C(CC(C)C)C(=O)N(CCC(=O)C(N)=O)C2=O)cc1 [KBnh-1] | 12.1 µM
CCOC(=O)C(Cc1ccc(O)cc1)NC(=O)C(CC(C)C)N1C(=O)C(CC(C)C)=C(c2ccc(OCC=C(C)C)cc2)C1=O (stereo not drawn) [Compound A1-2, Ethyl 3-(4-hydroxyphenyl)-2-(2-(3-isobutyl-4-(4-(3-methylbut-2-enyloxy)phenyl)-2,5-dioxo-2,5-dihydro-1H-1-yl)-4-methylpentanamido)propanoate] | > 100 µM
